Assay results as given in US6706740B2, “Fungicidal heterocyclic aromatic amides and their compositions, methods of use and preparation” (Dow AgroSciences LLC, priority 1999, dated 2004).
Like-named read-outs stand apart in the source and are kept apart here.

Columns and labels:
[1] = tested on: Stagonospora nodorum (Leptosphaeria nodorum—LEPTNO); experiment: In vitro fungal growth inhibition, Stagonospora nodorum (LEPTNO); assay type: cell-based; conditions: Leptosphaeria, read-out: LEPTNO in vitro Growth Inhibition
[2] = tested on: Magnaporthe grisea (Pyricularia oryzae—PYRIOR); experiment: microbe, parasite or virus in culture; assay type: cell-based; conditions: Pyricularia oryzae, read-out: PYRIOR in vitro Growth Inhibition
Septoria tritici—SEPTTR = experiment: Leaf Blotch of Wheat, in vivo whole plant, 24 Hour Protectant; conditions: for pest or weed control at 100 ppm: Zymoseptoria tritici, 24 h, read-out: SEPTTR in vivo 1 Day Protectant
Ustilago maydis (USTIMA) = experiment: microbe, parasite or virus in culture; assay type: cell-based; conditions: Mycosarcoma maydis, read-out: USTIMA in vitro Growth Inhibition
[3] = tested on: Phytophthora infestans (PHYTIN); experiment: microbe, parasite or virus in culture; assay type: cell-based; conditions: Phytophthora infestans, read-out: PHYTIN in vitro Growth Inhibition
[4] = tested on: Phytophthora infestans—PHYTIN; experiment: whole plant or invertebrate; assay type: in vivo; conditions: Phytophthora, in Solanum lycopersicum, 24 h, read-out: PHYTIN in vivo 1 Day Protectant
[5] = tested on: Rhizoctonia solani (RHIZSO); experiment: microbe, parasite or virus in culture; assay type: cell-based; conditions: Rhizoctonia solani, read-out: RHIZSO in vitro Growth Inhibition
Erysiphe graminis—ERYSGT = experiment: Powdery Mildew of Wheat, in vivo whole plant, 24 Hour Protectant; conditions: for pest or weed control at 100 ppm: Erysiphe, read-out: ERYSGT in vivo 1 Day Protectant
[6] = tested on: Leptosphaeria nodorum—LEPTNO; experiment: Glume Blotch of Wheat, in vivo whole plant, 24 Hour Protectant; conditions: for pest or weed control at 100 ppm: Leptosphaeria, read-out: LEPTNO in vivo 1 Day Protectant
[7] = tested on: Puccinia recondita—PUCCRT; experiment: Brown Rust of Wheat, in vivo whole plant, 24 Hour Protectant; conditions: for pest or weed control at 100 ppm: Puccinia, read-out: PUCCRT in vivo 1 Day Protectant
[8] = tested on: Mycosphaerella graminicola (Septoria tritici—SEPTTR); experiment: In vitro fungal growth inhibition, Mycosphaerella graminicola (SEPTTR); assay type: cell-based; conditions: Zymoseptoria tritici, read-out: SEPTTR in vitro Growth Inhibition
[9] = 100 ppm spray, wheat, 24 hour protectant, control of fungal infection vs untreated plants
[10] = 100 ppm spray, wheat, 24 hour protectant, % control of fungal infection vs untreated plants
[11] = wheat plants sprayed at 100 ppm, inoculated after 24 hours, control of fungal infection vs untreated plants
[12] = 100 ppm spray, 24 hour protectant, wheat, control of fungal infection vs untreated plants

Compound | inhibition at 25 ppm ([1]; 25 ppm in growth medium) [%] | inhibition at 25 ppm [2] [%] | inhibition at 25 ppm (Ustilago maydis (USTIMA)) [%] | melting point [°C] | inhibition at 25 ppm [3] [%] | pest or weed control at 100 ppm [4] [%] | inhibition at 25 ppm [5] [%] | inhibition at 25 ppm ([8]; 25 ppm in growth medium) [%] | inhibition at 25 ppm ([1]; 25 ppm in the growth medium) [%] | pest or weed control at 100 ppm (Septoria tritici—SEPTTR; [11]) [%] | pest or weed control at 100 ppm (Erysiphe graminis—ERYSGT; [11]) [%] | pest or weed control at 100 ppm [6, 11] [%] | pest or weed control at 100 ppm [7, 11] [%] | inhibition at 25 ppm ([8]; 25 ppm in the growth medium) [%] | other results
COc1ccnc(C(=O)Nc2ccc(Cc3cccc(C(F)(F)F)c3)cc2)c1O [Compound 404] | < 80 | < 80 | > 80 | 126 to 127 | < 80 | < 25 | < 80 | < 80 |  |  |  |  |  |  | pest or weed control at 100 ppm (Septoria tritici—SEPTTR; [9]): 25 to 74%; pest or weed control at 100 ppm (Erysiphe graminis—ERYSGT; [9]): 25 to 74%; pest or weed control at 100 ppm [6, 9]: 25 to 74%; pest or weed control at 100 ppm [7, 9]: 25 to 74%
COCCC(=O)Oc1c(OC)ccnc1C(=O)Nc1cccc(C(=O)Nc2ccc(C(F)(F)F)cc2)c1 [Compound 714] | < 80 | < 80 | < 80 | 187 to 189 | < 80 | < 25 | < 80 | < 80 |  |  |  |  |  |  | pest or weed control at 100 ppm (Septoria tritici—SEPTTR; [10]): 25 to 74%; pest or weed control at 100 ppm (Erysiphe graminis—ERYSGT; [10]): < 25%; pest or weed control at 100 ppm [6, 10]: 25 to 74%; pest or weed control at 100 ppm [7, 10]: < 25%
CC(C)C(=O)O[C@H]1[C@H](C)OC(=O)[C@@H](NC(=O)c2cn(C)nc2O)COC(=O)[C@@H]1Cc1ccccc1 [Compound 558] |  | < 80 | < 80 | 199 to 205 | < 80 | < 25 | < 80 |  | < 80 | 25 to 74 | < 25 | 25 to 74 | 25 to 74 | < 80 | 
COc1ccnc(C(=O)Nc2cccc(OC3CC(C)(C)OC(C)(C)C3)c2)c1O [Compound 460] | < 80 | < 80 | < 80 | 149 to 153 | < 80 | < 25 | < 80 | < 80 |  |  |  |  |  |  | pest or weed control at 100 ppm (Septoria tritici—SEPTTR; [9]): 25 to 74%; pest or weed control at 100 ppm (Erysiphe graminis—ERYSGT; [9]): 25 to 74%; pest or weed control at 100 ppm [6, 9]: 25 to 74%; pest or weed control at 100 ppm [7, 9]: 25 to 74%
CCOc1ccnc(C(=O)Nc2ccc(Oc3cccc(C(F)(F)F)c3)cc2)c1O [Compound 476] |  | < 80 | < 80 | 118 to 121 | < 80 | < 25 | < 80 |  | < 80 | < 25 | < 25 | 25 to 74 | < 25 | < 80 | 
COCCC(=O)Oc1c(OC)ccnc1C(=O)Nc1cccc(NC(=O)c2ccc(C(F)(F)F)cc2)c1 [Compound 718] | < 80 | < 80 | < 80 | 115 to 118 | < 80 | < 25 | < 80 | < 80 |  |  |  |  |  |  | SEPTTR in vivo 1 Day Protectant (Septoria tritici—SEPTTR; [10]): + +; pest or weed control at 100 ppm (Erysiphe graminis—ERYSGT; [10]): < 25%; pest or weed control at 100 ppm [6, 10]: 25 to 74%; pest or weed control at 100 ppm [7, 10]: 25 to 74%
O=C(Nc1cccc(Oc2ccccc2)c1)c1cccnc1O [Compound 521] |  | < 80 | < 80 | 200 to 201 | < 80 | 25 to 74 | < 80 |  | < 80 | < 25 | < 25 | 25 to 74 | < 25 | < 80 | 
COc1ccnc(C(=O)N[C@H]2COC(=O)[C@H](Cc3ccccc3)[C@@H](OC(=O)C(C)C)[C@H](C)OC2=O)c1OC(=O)C1CC1 [Compound 601] | < 80 | < 80 | < 80 | 195 to 196 | < 80 | < 25 | < 80 | < 80 |  |  |  |  |  |  | SEPTTR in vivo 1 Day Protectant (Septoria tritici—SEPTTR; [10]): + +; pest or weed control at 100 ppm (Erysiphe graminis—ERYSGT; [10]): < 25%; LEPTNO in vivo 1 Day Protectant [6, 10]: + +; PUCCRT in vivo 1 Day Protectant [7, 10]: + +
Cc1nc(O)c(C(=O)N[C@H]2COC(=O)[C@H](Cc3ccccc3)[C@@H](OC(=O)C(C)C)[C@H](C)OC2=O)nc1C [Compound 536] |  | < 80 | < 80 | 80 to 83 | < 80 | < 25 | < 80 |  | < 80 | 25 to 74 | < 25 |  | 25 to 74 | > 80 | LEPTNO in vivo 1 Day Protectant [6, 11]: + +
COc1ccnc(C(=O)Nc2ccc(Oc3cc(C(F)(F)F)ccn3)cc2)c1O [Compound 461] |  | < 80 | < 80 | 169 to 171 | < 80 | < 25 | < 80 |  | < 80 | 25 to 74 | < 25 | 25 to 74 | 25 to 74 | < 80 | 
O=C(Nc1cccc(Cl)c1)c1ncccc1O [Compound 212] | < 80 | > 80 | < 80 | 131 to 132 | < 80 | < 25 | < 80 | < 80 |  |  |  |  |  |  | pest or weed control at 100 ppm (Septoria tritici—SEPTTR; [12]): < 25%; pest or weed control at 100 ppm (Erysiphe graminis—ERYSGT; [12]): < 25%; pest or weed control at 100 ppm [6, 12]: < 25%; pest or weed control at 100 ppm [7, 12]: < 25%
COc1ccnc(C(=O)N[C@H]2COC(=O)[C@H](Cc3ccccc3)[C@@H](OCC(C)C)[C@H](C)OC2=O)c1O [Compound 384] | > 80 | > 80 | < 80 | 172 to 174 | < 80 | < 25 | < 80 | > 80 |  |  |  |  |  |  | pest or weed control at 100 ppm (Septoria tritici—SEPTTR; [9]): 25 to 74%; ERYSGT in vivo 1 Day Protectant (Erysiphe graminis—ERYSGT; [9]): + +; LEPTNO in vivo 1 Day Protectant [6, 9]: + +; pest or weed control at 100 ppm [7, 9]: 25 to 74%
CC(C)(C)CNC(=O)c1cccnc1O [Compound 514] |  | < 80 | < 80 | 180 to 181 | < 80 | < 25 | < 80 |  | < 80 | < 25 | < 25 | 25 to 74 | < 25 | < 80 | 
